According to US20230104936A1, “TRPML MODULATORS” (Casma Therapeutics, Inc., priority 2019, published 2023):

system: TFEB; test: TFEB nuclear translocation assay, HeLa wt cells; type: cell-based; details: Homo sapiens, HeLa, 2 h, 2 hrs compound treatment, Table 1 does not say HeLa wt or TRPML1 KO
In short: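 HeLa wt cells were treated with compound for 2 hrs at 37° C, then fixed in 4% PFA and immunostained for TFEB with an Alexa 488 secondary and Hoechst nuclear counterstain. Automated epifluorescence imaging at ×20 gave the ratio of nuclear TFEB intensity to a perinuclear ring region, from which AC50 was derived.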

First: CN(C)S(=O)(=O)c1ccc(S(=O)(=O)Nc2ccccc2N2CC(c3ccc(Cl)cc3)C2)cc1 [Compound A-56, N4-{2-[3-(4-chlorophenyl)azetidin-1-yl]phenyl}-N1,N1-dimethylbenzene-1,4-disulfonamide]
Second: CN1CC2CN(c3ccccc3NS(=O)(=O)c3ccc(S(=O)(=O)N(C)C)cc3)CC2C1 (stereo not shown) [Compound A-58, N1,N1-dimethyl-N4-(2-{5-methyl-octahydropyrrolo[3,4-c]pyrrol-2-yl}phenyl)benzene-1,4-disulfonamide]
The AC50 of the first is lower: 2.01 to 8 µM for the first, ≥ 10 µM for the second.

`CN(C)S(=O)(=O)c1ccc(S(=O)(=O)Nc2ccccc2N2CCN(c3ccncc3F)CC2)cc1` [Compound A-57, N4-{2-[4-(3-fluoropyridin-4-yl)piperazin-1-yl]phenyl}-N1,N1-dimethylbenzene-1,4-disulfonamide] and `CN(C)S(=O)(=O)c1ccc(S(=O)(=O)Nc2ccccc2N2CCC(c3cnn(C)c3)CC2)cc1` [Compound A-60, N1,N1-dimethyl-N4-{2-[4-(1-methyl-1H-pyrazol-4-yl)piperidin-1-yl]phenyl}benzene-1,4-disulfonamide] fall in the same range of AC50: 2.01 to 8 µM for the first, 2.01 to 8 µM for the second.

`CN(C)S(=O)(=O)c1ccc(S(=O)(=O)Nc2nc(N3CCN(c4ccc(Cl)cc4F)CC3)n(C)n2)cc1` [Compound A-59, N1-(5-(4-(4-chloro-2-fluorophenyl)piperazin-1-yl)-1-methyl-1H-1,2,4-triazol-3-yl)-N4,N4-dimethylbenzene-1,4-disulfonamide] and `CN(C)S(=O)(=O)c1ccc(S(=O)(=O)Nc2nc(N3CCN(c4ccc(Cl)cc4F)CC3)nn2C)cc1` [Compound A-68, N1-(3-(4-(4-chloro-2-fluorophenyl)piperazin-1-yl)-1-methyl-1H-1,2,4-triazol-5-yl)-N4,N4-dimethylbenzene-1,4-disulfonamide] cannot be ordered by AC50: ≥ 10 µM for the first, ≥ 10 µM for the second.

`CN1Cc2cc(S(=O)(=O)Nc3ccccc3N3CCC(c4ccc(Cl)cc4F)CC3)ccc2C1=O` [Compound A-61, N-{2-[4-(4-chloro-2-fluorophenyl)piperidin-1-yl]phenyl}-2-methyl-1-oxo-2,3-dihydro-1H-isoindole-5-sulfonamide] and `CP(=O)(Nc1ccccc1N1CCC(c2ccc(Cl)cc2F)CC1)c1ccccc1` (stereo not shown) [Compound A-66, 4-(4-chloro-2-fluorophenyl)-1-(2-{[methyl(phenyl)phosphoryl]amino}phenyl)piperidine] cannot be ordered by AC50: ≥ 10 µM for the first, ≥ 10 µM for the second.

First: CN(C)S(=O)(=O)c1ccc(S(=O)(=O)n2cnc(N3CCC(c4ccc(Cl)cc4F)CC3)n2)cc1 [Compound A-62, 4-((3-(4-(4-chloro-2-fluorophenyl)piperidin-1-yl)-1H-1,2,4-triazol-1-yl)sulfonyl)-N,N-dimethylbenzenesulfonamide]
Second: CN(C)S(=O)(=O)c1ccc(S(=O)(=O)Nc2nnc(C3CCN(c4ccc(Cl)cc4F)CC3)s2)cc1 [Compound A-64, N1-(5-(1-(4-chloro-2-fluorophenyl)piperidin-4-yl)-1,3,4-thiadiazol-2-yl)-N4,N4-dimethylbenzene-1,4-disulfonamide]
The AC50 of the first is lower: 8.01 to 9.99 µM for the first, ≥ 10 µM for the second.

Compared with `CN(C)S(=O)(=O)c1ccc(S(=O)(=O)n2c(=O)n(C3CCN(c4ccc(Cl)cc4F)CC3)c3ccccc32)cc1` [Compound A-63, 4-({3-[1-(4-chloro-2-fluorophenyl)piperidin-4-yl]-2-oxo-2,3-dihydro-1H-1,3-benzodiazol-1-yl}sulfonyl)-N,N-dimethylbenzene-1-sulfonamide], `CN(C)S(=O)(=O)c1ccc(S(=O)(=O)n2ccn(C3CCN(c4ccc(Cl)cc4F)CC3)c2=O)cc1` [Compound A-67, 4-((3-(1-(4-chloro-2-fluorophenyl)piperidin-4-yl)-2-oxo-2,3-dihydro-1H-imidazol-1-yl)sulfonyl)-N,N-dimethylbenzenesulfonamide] is higher in AC50: 2.01 to 8 µM for the first, ≥ 10 µM for the second.

`Cc1noc(NS(=O)(=O)c2ccc(S(=O)(=O)N(C)C)cc2)c1C1=CCN(c2ccc(Cl)cc2F)CC1` [Compound A-65, N1-(4-(1-(4-chloro-2-fluorophenyl)-1,2,3,6-tetrahydropyridin-4-yl)-3-methylisoxazol-5-yl)-N4,N4-dimethylbenzene-1,4-disulfonamide] was tested, and the AC50 was ≥ 10 µM.
